Assay results: US8192962B2, “Processes for detecting toxic substances” (Daikin Industries, Ltd., priority 2001, dated 2012)

System: Metabolism protein genes
Assay: DNA chip mRNA expression in yeast, metabolism protein genes (Table 7)
Assay type: cell-based, Saccharomyces cerevisiae S288C
Method in brief: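 S. cerevisiae S288C grown at 25° C in YPD were exposed in log phase for two hours to one toxic chemical at a growth-inhibiting, non-lethal concentration; untreated cells served as control. Poly(A) mRNA was reverse-transcribed with Cy3/Cy5-dUTP and hybridized to a whole-genome yeast DNA chip at 65° C for over 12 hours; values are fluorescence ratios versus untreated.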

Question: Which results are given for `[Cl][Pb][Cl]` [(4), PbCl2]?
Answer: The level of expressed mRNA in the presence of chemical substance/The level of expressed mRNA in the absence of chemical substance (yeast gene YAL012W): 0.8; The level of expressed mRNA in the presence of chemical substance/The level of expressed mRNA in the absence of chemical substance (yeast gene YAL038W): 1.4; level of expressed mRNA in the presence/in the absence of chemical substance (yeast gene YBR003W): 1.9; level of expressed mRNA in the presence/in the absence of chemical substance (yeast gene YBR011C): 1.1; level of expressed mRNA in the presence/in the absence of chemical substance (yeast gene YBR020W): 1.9; The level of expressed mRNA in the presence of chemical substance/The level of expressed mRNA in the absence of chemical substance (yeast gene YBR023C): 1.1; The level of expressed mRNA in the presence of chemical substance/The level of expressed mRNA in the absence of chemical substance (yeast gene YBR029C): 1.0; The level of expressed mRNA in the presence of chemical substance/The level of expressed mRNA in the absence of chemical substance (yeast gene YBR183W): 2.9; The level of expressed mRNA in the presence of chemical substance/The level of expressed mRNA in the absence of chemical substance (yeast gene YBR222C): 0.8; The level of expressed mRNA in the presence of chemical substance/The level of expressed mRNA in the absence of chemical substance (yeast gene YBR256C): 1.3; The level of expressed mRNA in the presence of chemical substance/The level of expressed mRNA in the absence of chemical substance (yeast gene YCL009C): 0.5; The level of expressed mRNA in the presence of chemical substance/The level of expressed mRNA in the absence of chemical substance (yeast gene YCL064C): 0.8; level of expressed mRNA in the presence/in the absence of chemical substance (yeast gene YCR010C): 4.2; level of expressed mRNA in the presence/in the absence of chemical substance (yeast gene YCR034W): 0.9; The level of expressed mRNA in the presence of chemical substance/The level of expressed mRNA in the absence of chemical substance (yeast gene YCR048W): 0.6; The level of expressed mRNA in the presence of chemical substance/The level of expressed mRNA in the absence of chemical substance (yeast gene YCR098C): 2.0; The level of expressed mRNA in the presence of chemical substance/The level of expressed mRNA in the absence of chemical substance (yeast gene YDR019C): 4.0; level of expressed mRNA in the presence/in the absence of chemical substance (yeast gene YDR050C): 1.8; level of expressed mRNA in the presence/in the absence of chemical substance (yeast gene YDR073W): 1.4; level of expressed mRNA in the presence/in the absence of chemical substance (yeast gene YDR123C): 2.1; level of expressed mRNA in the presence/in the absence of chemical substance (yeast gene YDR178W): 2.2; level of expressed mRNA in the presence/in the absence of chemical substance (yeast gene YDR277C): 3.0; level of expressed mRNA in the presence/in the absence of chemical substance (yeast gene YDR284C): 2.9; level of expressed mRNA in the presence/in the absence of chemical substance (yeast gene YDR345C): 2.6; The level of expressed mRNA in the presence of chemical substance/The level of expressed mRNA in the absence of chemical substance (yeast gene YDR380W): 1.7; level of expressed mRNA in the presence/in the absence of chemical substance (yeast gene YDR400W): 0.7; level of expressed mRNA in the presence/in the absence of chemical substance (yeast gene YDR408C): 4.1; level of expressed mRNA in the presence/in the absence of chemical substance (yeast gene YDR483W): 2.0; The level of expressed mRNA in the presence of chemical substance/The level of expressed mRNA in the absence of chemical substance (yeast gene YDR497C): 1.3; The level of expressed mRNA in the presence of chemical substance/The level of expressed mRNA in the absence of chemical substance (yeast gene YDR502C): 1.2; The level of expressed mRNA in the presence of chemical substance/The level of expressed mRNA in the absence of chemical substance (yeast gene YDR516C): 2.1; level of expressed mRNA in the presence/in the absence of chemical substance (yeast gene YEL063C): 1.3; level of expressed mRNA in the presence/in the absence of chemical substance (yeast gene YER015W): 1.5; The level of expressed mRNA in the presence of chemical substance/The level of expressed mRNA in the absence of chemical substance (yeast gene YER026C): 1.0; The level of expressed mRNA in the presence of chemical substance/The level of expressed mRNA in the absence of chemical substance (yeast gene YER053C): 1.7; The level of expressed mRNA in the presence of chemical substance/The level of expressed mRNA in the absence of chemical substance (yeast gene YER069W): 1.4; level of expressed mRNA in the presence/in the absence of chemical substance (yeast gene YER081W): 1.4; The level of expressed mRNA in the presence of chemical substance/The level of expressed mRNA in the absence of chemical substance (yeast gene YER096W): 2.0; level of expressed mRNA in the presence/in the absence of chemical substance (yeast gene YER120W): 0.8; The level of expressed mRNA in the presence of chemical substance/The level of expressed mRNA in the absence of chemical substance (yeast gene YER178W): 1.0; level of expressed mRNA in the presence/in the absence of chemical substance (yeast gene YFL011W): 3.3; The level of expressed mRNA in the presence of chemical substance/The level of expressed mRNA in the absence of chemical substance (yeast gene YFL014W): 11.0; The level of expressed mRNA in the presence of chemical substance/The level of expressed mRNA in the absence of chemical substance (yeast gene YFL030W): 2.0; The level of expressed mRNA in the presence of chemical substance/The level of expressed mRNA in the absence of chemical substance (yeast gene YFL031W): 0.7; The level of expressed mRNA in the presence of chemical substance/The level of expressed mRNA in the absence of chemical substance (yeast gene YFL056C): 1.5; The level of expressed mRNA in the presence of chemical substance/The level of expressed mRNA in the absence of chemical substance (yeast gene YFL057C): 1.8; The level of expressed mRNA in the presence of chemical substance/The level of expressed mRNA in the absence of chemical substance (yeast gene YFR047C): 2.6; level of expressed mRNA in the presence/in the absence of chemical substance (yeast gene YGL012W): 1.2; The level of expressed mRNA in the presence of chemical substance/The level of expressed mRNA in the absence of chemical substance (yeast gene YGL022W): 0.3; level of expressed mRNA in the presence/in the absence of chemical substance (yeast gene YGL115W): 2.0; The level of expressed mRNA in the presence of chemical substance/The level of expressed mRNA in the absence of chemical substance (yeast gene YGL126W): 0.8; level of expressed mRNA in the presence/in the absence of chemical substance (yeast gene YGL205W): 0.8; The level of expressed mRNA in the presence of chemical substance/The level of expressed mRNA in the absence of chemical substance (yeast gene YGL209W): 2.6; The level of expressed mRNA in the presence of chemical substance/The level of expressed mRNA in the absence of chemical substance (yeast gene YGL248W): 0.7; The level of expressed mRNA in the presence of chemical substance/The level of expressed mRNA in the absence of chemical substance (yeast gene YGR037C): 0.8; The level of expressed mRNA in the presence of chemical substance/The level of expressed mRNA in the absence of chemical substance (yeast gene YGR055W): 0.7; level of expressed mRNA in the presence/in the absence of chemical substance (yeast gene YGR096W): 4.6; level of expressed mRNA in the presence/in the absence of chemical substance (yeast gene YGR191W): 1.5; The level of expressed mRNA in the presence of chemical substance/The level of expressed mRNA in the absence of chemical substance (yeast gene YGR194C): 2.1; level of expressed mRNA in the presence/in the absence of chemical substance (yeast gene YGR204W): 1.3; The level of expressed mRNA in the presence of chemical substance/The level of expressed mRNA in the absence of chemical substance (yeast gene YGR256W): 0.8; The level of expressed mRNA in the presence of chemical substance/The level of expressed mRNA in the absence of chemical substance (yeast gene YGR282C): 1.9; level of expressed mRNA in the presence/in the absence of chemical substance (yeast gene YGR288W): 2.6; level of expressed mRNA in the presence/in the absence of chemical substance (yeast gene YHR025W): 0.6; The level of expressed mRNA in the presence of chemical substance/The level of expressed mRNA in the absence of chemical substance (yeast gene YHR111W): 1.9; level of expressed mRNA in the presence/in the absence of chemical substance (yeast gene YHR123W): 1.0; The level of expressed mRNA in the presence of chemical substance/The level of expressed mRNA in the absence of chemical substance (yeast gene YHR137W): 1.7; The level of expressed mRNA in the presence of chemical substance/The level of expressed mRNA in the absence of chemical substance (yeast gene YHR174W): 1.2; The level of expressed mRNA in the presence of chemical substance/The level of expressed mRNA in the absence of chemical substance (yeast gene YHR176W): 1.4; level of expressed mRNA in the presence/in the absence of chemical substance (yeast gene YHR210C): 5.2; level of expressed mRNA in the presence/in the absence of chemical substance (yeast gene YIL006W): 2.9; The level of expressed mRNA in the presence of chemical substance/The level of expressed mRNA in the absence of chemical substance (yeast gene YIL045W): 2.2; The level of expressed mRNA in the presence of chemical substance/The level of expressed mRNA in the absence of chemical substance (yeast gene YIL107C): 1.5; The level of expressed mRNA in the presence of chemical substance/The level of expressed mRNA in the absence of chemical substance (yeast gene YIL154C): 0.8; The level of expressed mRNA in the presence of chemical substance/The level of expressed mRNA in the absence of chemical substance (yeast gene YIL155C): 3.7; The level of expressed mRNA in the presence of chemical substance/The level of expressed mRNA in the absence of chemical substance (yeast gene YIR034C): 0.6; The level of expressed mRNA in the presence of chemical substance/The level of expressed mRNA in the absence of chemical substance (yeast gene YIR036C): 1.8; The level of expressed mRNA in the presence of chemical substance/The level of expressed mRNA in the absence of chemical substance (yeast gene YJL031C): 1.3; The level of expressed mRNA in the presence of chemical substance/The level of expressed mRNA in the absence of chemical substance (yeast gene YJL068C): 1.6; The level of expressed mRNA in the presence of chemical substance/The level of expressed mRNA in the absence of chemical substance (yeast gene YJL088W): 0.5; The level of expressed mRNA in the presence of chemical substance/The level of expressed mRNA in the absence of chemical substance (yeast gene YJL099W): 1.3; level of expressed mRNA in the presence/in the absence of chemical substance (yeast gene YJL121C): 0.8; level of expressed mRNA in the presence/in the absence of chemical substance (yeast gene YJL167W): 1.1; The level of expressed mRNA in the presence of chemical substance/The level of expressed mRNA in the absence of chemical substance (yeast gene YJL172W): 1.5; level of expressed mRNA in the presence/in the absence of chemical substance (yeast gene YJL216C): 0.9; The level of expressed mRNA in the presence of chemical substance/The level of expressed mRNA in the absence of chemical substance (yeast gene YJL219W): 1.6; level of expressed mRNA in the presence/in the absence of chemical substance (yeast gene YJR077C): 1.6; The level of expressed mRNA in the presence of chemical substance/The level of expressed mRNA in the absence of chemical substance (yeast gene YJR137C): 0.8; level of expressed mRNA in the presence/in the absence of chemical substance (yeast gene YJR143C): 0.8; The level of expressed mRNA in the presence of chemical substance/The level of expressed mRNA in the absence of chemical substance (yeast gene YJR148W): 3.5
